In one test the target is T1, RIPK2 (KD)/XIAP (BIR2) (Homo sapiens, UniProt O43353).
T1 construct: made in house; host or cells: baculovirus-infected Sf9 cells
As to the kind of experiment: RIPK2-XIAP binding competition PPI assay (TR-FRET). Particulars: for Emax: 50 nM of GSK583 = -100% activity, read-out: PPI Amax; for IC50: GST-RIPK2 / His-XIAP (BIR2)-avi, 120 min at 23° C. The text has this:
The ability of selected compounds of Formula (I) to inhibit the binding of an His-XIAP (BIR2)-avi fusion protein to a GST-RIPK2 fusion protein was quantified employing the TR-FRET-based competition assay as described in the following paragraphs.
Recombinant fusion protein of N-terminal Glutathione-S-Transferase (GST) and a fragment of human RIPK2 (amino acids 1-310 of accession number 043353), expressed in baculovirus infected Sf9 cells, purified via glutathione affinity chromatography, was used as GST-RIPK2 fusion protein. Recombinant fusion protein of N-terminal 6xHistidine (His), a fragment of human XIAP (amino acids 152-231 of accession number P98170), and C-terminal avi tag, expressed in baculovirus infected Sf9 cells, purified via Nickel NTA affinity chromatography, was used as the His-XIAP (BIR2)-avi fusion protein.
For the assay, a working solution of 1 nM GST-RIPK2, 25 nM His-XIAP (BIR2)-avi, 6 nM Anti-His-XL665 […] (Revvity Catalogue No. 61HISXLB), and 0.5 nM Anti-GST-Tb(Revvity Catalogue No. 61GSTTLB) in 25 mM Tris-HCl 7.5, 0.5 mM ethylene glycol-bis(2-aminoethylether)-N,N,N′,N′-tetraacetic acid (EGTA), 10 mM magnesium chloride (MgCl2), 2.5 mM dithiothreitol (DTT), 0.01% (w/v) bovine serum albumin (BSA), 0.005% (w/v) Pluronic F-127 (Sigma), 0.5 mM sodium ortho-vanadate, 5 mM-Glycerophosphate disodium salt hydrate (BGP) was prepared. 50 nL of a 100-fold concentrated solution of each test compound in DMSO was dispensed via acoustic dispensing into a white low volume 384-well microtiter plate (Perkin Elmer Catalogue No. 6008280). Subsequently, 5 μL of the assay working solution were added.
The resulting mixture was incubated 120 min at 23° C. Subsequently, the amount of complex formed by the GST-RIPK2, XIAP (BIR2)-avi, Anti-His-XL665, and Anti-GST-Tb was evaluated by measurement of the resonance energy transfer from the Tb-cryptate to the XL665. Therefore, the fluorescence emissions at 520 nm and 665 nm after excitation at 337 nm were measured in a TR-FRET reader, e.g. a Pherastar FS(BMG Labtechnologies, Offenburg, Germany) or an Envision (PerkinElmer). The ratio of the emissions at 665 nm and at 520 nm was taken as the measure of the amount of the complex. The data were normalized (assay reaction without inhibitor=0% activity, 50 nM of GSK583=−100% activity).
Background: Time-resolved FRET reads energy transfer from a long-lived donor to a nearby acceptor.

For test [1], the system named is THP1-Dual cells, NF-κB pathway (SEAP). As to the kind of experiment: THP-1 Dual cell SEAP assay (L18-MDP stimulated). Particulars: Homo sapiens, 10 ng/mL L18-MDP, 20-24 h, SEAP readout, read-out: IFNγ THP1 IC50. In kind it is cell-based. The method, then: THP1-Dual™ cells (InvivoGen Cat #thpd-nfis) allow simultaneous assessment of the NF-κB pathway, by monitoring the activity of secreted embryonic alkaline phosphatase (SEAP) as well as the IRF pathway, by assessing the activity of a secreted luciferase (Lucia). Cells were cultured according to manufacturers' recommendations. For the assay, cell concentration was adjusted to 7.14×10^5 cells/mL in assay media (RPMI 1640, 2 mM L-Glutamine, 25 mM HEPES, 10% fetal bovine serum (heat-inactivated for 30 min at 56° C.), Pen-Strep (100 U/mL)) and 35 μL of cell suspension (˜25,000 cells) per well were added to a flat bottom 384-well plate (white opaque). Plate was centrifuged at 300 g for 2 min, compounds were added in serial dilution series according to the plate layout (volumes ˜500 nL-0.0152 nL) and plate was incubated at 37° C. in 5% CO2 for 30 min. Using assay media, a L18-MDP stock solution, that results in a final concentration of 10 ng/mL L18-MDP in each well when adding 15 μL to each well, was prepared. 15 μL of L18-MDP stock solution was added to each well, while 15 μL of assay media was added to the negative control wells. Plates were subsequently incubated at 37° C. in 5% CO2 overnight (20-24 h).
For the SEAP assay: without disturbing the cells at the bottom of the well, 15 μL supernatant was transferred to a clear 384-well flat bottom plate and 35 μL QUANTI-Blue Solution per well was added. Following a 2 h incubation at 37° C., the optical density (OD) was measured at 620-655 nm using a microplate reader (PheraStar FS microplate reader with protocol for OD 620-655 nm).
Values of media-only wells were subtracted and % inhibition for each compound concentration relative to the DMSO/L18-MDP-treated controls was calculated. Inhibition values+/−SD were fitted by non-linear regression using Prism software (GraphPad PRISM Software) to calculate IC50 values.

Among the data in patent publication US20260091026A1, “METHODS OF TREATING INFLAMMATORY DISEASES” (INTERLINE THERAPEUTICS, INC., priority 2023, published 2026) are Emax and IC50 values, retold here.

Some results are limits rather than exact numbers.

T1 sequence (O43353 1-310): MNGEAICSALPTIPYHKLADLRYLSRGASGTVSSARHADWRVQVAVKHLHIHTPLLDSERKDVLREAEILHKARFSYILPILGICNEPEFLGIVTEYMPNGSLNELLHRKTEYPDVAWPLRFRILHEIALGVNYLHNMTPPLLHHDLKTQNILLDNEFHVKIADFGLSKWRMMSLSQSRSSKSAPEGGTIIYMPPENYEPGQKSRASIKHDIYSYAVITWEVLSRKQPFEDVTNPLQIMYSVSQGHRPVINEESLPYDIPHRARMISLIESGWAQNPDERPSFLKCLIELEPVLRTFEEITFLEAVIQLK

As a reminder, the IC50 is the concentration that gives 50% inhibition. On to `COc1cc2ncc(-c3cc(C(=O)N[C@@H](C)C4CC4)n(C)n3)n2cc1S(=O)(=O)C(C)(C)C` [Example 36, (S)-3-(6-(tert-butylsulfonyl)-7-methoxyimidazo[1,2-a]pyridin-3-yl)-N-(1-cyclopropylethyl)-1-methyl-1H-pyrazole-5-carboxamide], for which, on RIPK2 (KD)/XIAP (BIR2), the Emax was 30 to 55% and the half-inhibitory concentration (IC50) was > 1000 nM. Also, the IC50 in test [1] was > 2500 nM.

Turning to `COc1cc2ncc(-c3cc(C(=O)NC(C)C)n(C)n3)n2cc1S(=O)(=O)C(C)(C)C` [Example 37, 3-(6-(tert-butylsulfonyl)-7-methoxyimidazo[1,2-a]pyridin-3-yl)-N-isopropyl-1-methyl-1H-pyrazole-5-carboxamide], the Emax at RIPK2 (KD)/XIAP (BIR2) fell in the range of 30 to 55%. In addition, the IC50 was > 1000 nM on RIPK2 (KD)/XIAP (BIR2) and > 2500 nM in test [1].

With `COc1cc2ncc(-c3cc(C(=O)NCC4CC4)n(C)n3)n2cc1S(=O)(=O)C(C)(C)C` [Example 38, 3-(6-(tert-butylsulfonyl)-7-methoxyimidazo[1,2-a]pyridin-3-yl)-N-(cyclopropylmethyl)-1-methyl-1H-pyrazole-5-carboxamide], on RIPK2 (KD)/XIAP (BIR2), the Emax was in the range of 30 to 55% and the IC50 is > 1000 nM. In addition, the IC50 in test [1] is > 2500 nM.

Take `COc1cc2ncc(-c3cc(C(=O)NCC4CCC4)n(C)n3)n2cc1S(=O)(=O)C(C)(C)C` [Example 39, 3-(6-(tert-butylsulfonyl)-7-methoxyimidazo[1,2-a]pyridin-3-yl)-N-(cyclobutylmethyl)-1-methyl-1H-pyrazole-5-carboxamide]: on RIPK2 (KD)/XIAP (BIR2), the Emax is ≥ 80% and the IC50 was 100 to 1000 nM. For the same molecule, the IC50 in test [1] was > 2500 nM.

For the molecule `COc1cc2ncc(-c3cc(C(=O)NCC4CCCC4)n(C)n3)n2cc1S(=O)(=O)C(C)(C)C` [Example 40, 3-(6-(tert-butylsulfonyl)-7-methoxyimidazo[1,2-a]pyridin-3-yl)-N-(cyclopentylmethyl)-1-methyl-1H-pyrazole-5-carboxamide], the Emax at RIPK2 (KD)/XIAP (BIR2) is ≥ 80%. The IC50 on RIPK2 (KD)/XIAP (BIR2) was 100 to 1000 nM; in test [1], > 2500 nM.

As to `COc1cc2ncc(-c3cc(C(=O)NCC4CCCCC4)n(C)n3)n2cc1S(=O)(=O)C(C)(C)C` [Example 41, 3-(6-(tert-butylsulfonyl)-7-methoxyimidazo[1,2-a]pyridin-3-yl)-N-(cyclohexylmethyl)-1-methyl-1H-pyrazole-5-carboxamide], the Emax on RIPK2 (KD)/XIAP (BIR2) is ≥ 80%. In addition, the IC50 at RIPK2 (KD)/XIAP (BIR2) is 100 to 1000 nM; in test [1], > 2500 nM.

In the case of `COc1cc2ncc(-c3cc(C(=O)N[C@H](C)c4ccccn4)n(C)n3)n2cc1S(=O)(=O)C(C)(C)C` [Example 42, (R)-3-(6-(tert-butylsulfonyl)-7-methoxyimidazo[1,2-a]pyridin-3-yl)-1-methyl-N-(1-(pyridin-2-yl)ethyl)-1H-pyrazole-5-carboxamide], the Emax on RIPK2 (KD)/XIAP (BIR2) was ≥ 80%. Moreover, the IC50 at RIPK2 (KD)/XIAP (BIR2) was in the range of 10 to 100 nM; in test [1], 100 to 500 nM.

`COc1cc2ncc(-c3cc(C(=O)NCc4[nH]ncc4C)n(C)n3)n2cc1S(=O)(=O)C(C)(C)C` [Example 43, 3-(6-(tert-butylsulfonyl)-7-methoxyimidazo[1,2-a]pyridin-3-yl)-1-methyl-N-((4-methyl-1H-pyrazol-5-yl)methyl)-1H-pyrazole-5-carboxamide]: on RIPK2 (KD)/XIAP (BIR2), the Emax was ≥ 80% and the IC50 fell in the range of 100 to 1000 nM. In test [1], the IC50 was > 2500 nM.

As for `COc1cc2ncc(-c3cc(C(=O)NCc4cn(C)cn4)n(C)n3)n2cc1S(=O)(=O)C(C)(C)C` [Example 44, 3-(6-(tert-butylsulfonyl)-7-methoxyimidazo[1,2-a]pyridin-3-yl)-1-methyl-N-((1-methyl-1H-imidazol-4-yl)methyl)-1H-pyrazole-5-carboxamide], at RIPK2 (KD)/XIAP (BIR2), the Emax was ≥ 80% and the IC50 was 100 to 1000 nM. Also, in test [1], the IC50 is > 2500 nM.

Consider `COc1cc2ncc(-c3cc(C(=O)NCc4cc(C)n[nH]4)n(C)n3)n2cc1S(=O)(=O)C(C)(C)C` [Example 45, 3-(6-(tert-butylsulfonyl)-7-methoxyimidazo[1,2-a]pyridin-3-yl)-1-methyl-N-((3-methyl-1H-pyrazol-5-yl)methyl)-1H-pyrazole-5-carboxamide], for which, on RIPK2 (KD)/XIAP (BIR2), the Emax is ≥ 80% and the IC50 is 10 to 100 nM. The half-maximal inhibitory concentration (IC50) in test [1] was > 2500 nM.

`COc1cc2ncc(-c3cc(C(=O)NCc4ccc(F)cn4)n(C)n3)n2cc1S(=O)(=O)C(C)(C)C` [Example 46, 3-(6-(tert-butylsulfonyl)-7-methoxyimidazo[1,2-a]pyridin-3-yl)-N-((5-fluoropyridin-2-yl)methyl)-1-methyl-1H-pyrazole-5-carboxamide]: the Emax at RIPK2 (KD)/XIAP (BIR2) was ≥ 80%. Further, the IC50 at RIPK2 (KD)/XIAP (BIR2) is 100 to 1000 nM; in test [1], > 2500 nM.

In the case of `COc1cc2ncc(-c3cc(C(=O)N[C@H](C)c4ccccn4)n(C)n3)n2cc1C1(F)CCN(C)CC1` [Example 47, (R)-3-(6-(4-fluoro-1-methylpiperidin-4-yl)-7-methoxyimidazo[1,2-a]pyridin-3-yl)-1-methyl-N-(1-(pyridin-2-yl)ethyl)-1H-pyrazole-5-carboxamide], on RIPK2 (KD)/XIAP (BIR2), the Emax was ≥ 80% and the IC50 was 10 to 100 nM. In addition, the IC50 in test [1] was in the range of 500 to 2500 nM.

Regarding `COc1cc2ncc(-c3cc(C(=O)N[C@H](C)c4ccc(F)cn4)n(C)n3)n2cc1S(=O)(=O)C(C)(C)C` [Example 48, (R)-3-(6-(tert-butylsulfonyl)-7-methoxyimidazo[1,2-a]pyridin-3-yl)-N-(1-(5-fluoropyridin-2-yl)ethyl)-1-methyl-1H-pyrazole-5-carboxamide], the Emax at RIPK2 (KD)/XIAP (BIR2) was ≥ 80%. Moreover, the IC50 fell in the range of 10 to 100 nM at RIPK2 (KD)/XIAP (BIR2) and 500 to 2500 nM in test [1].

`COc1cc2ncc(-c3cc(C(=O)NCc4ncccc4F)n(C)n3)n2cc1S(=O)(=O)C(C)(C)C` [Example 49, 3-(6-(tert-butylsulfonyl)-7-methoxyimidazo[1,2-a]pyridin-3-yl)-N-((3-fluoropyridin-2-yl)methyl)-1-methyl-1H-pyrazole-5-carboxamide]: at RIPK2 (KD)/XIAP (BIR2), the Emax is ≥ 80% and the half-maximal inhibitory concentration (IC50) lay within 10 to 100 nM. Further, the IC50 in test [1] fell in the range of 500 to 2500 nM.

Take `COc1cc2ncc(-c3cc(C(=O)N[C@H](C)c4ncccc4F)n(C)n3)n2cc1S(=O)(=O)C(C)(C)C` [Example 50, (R)-3-(6-(tert-butylsulfonyl)-7-methoxyimidazo[1,2-a]pyridin-3-yl)-N-(1-(3-fluoropyridin-2-yl)ethyl)-1-methyl-1H-pyrazole-5-carboxamide]: at RIPK2 (KD)/XIAP (BIR2), the Emax is ≥ 80% and the 50% inhibitory concentration (IC50) lay in the range of 10 to 100 nM. In addition, in test [1], the IC50 fell in the range of 100 to 500 nM.

In the case of `COc1cc2ncc(-c3cc(C(=O)N[C@@H](C)c4ncccc4F)n(C)n3)n2cc1S(=O)(=O)C(C)(C)C` [Example 51, (S)-3-(6-(tert-butylsulfonyl)-7-methoxyimidazo[1,2-a]pyridin-3-yl)-N-(1-(3-fluoropyridin-2-yl)ethyl)-1-methyl-1H-pyrazole-5-carboxamide], on RIPK2 (KD)/XIAP (BIR2), the Emax lay in the range of 55 to 80% and the IC50 was > 1000 nM. The IC50 in test [1] was > 2500 nM.
